The assay addresses T1, Estrogen receptor (Homo sapiens, UniProt P03372).
T1 sequence (P03372 whole entry): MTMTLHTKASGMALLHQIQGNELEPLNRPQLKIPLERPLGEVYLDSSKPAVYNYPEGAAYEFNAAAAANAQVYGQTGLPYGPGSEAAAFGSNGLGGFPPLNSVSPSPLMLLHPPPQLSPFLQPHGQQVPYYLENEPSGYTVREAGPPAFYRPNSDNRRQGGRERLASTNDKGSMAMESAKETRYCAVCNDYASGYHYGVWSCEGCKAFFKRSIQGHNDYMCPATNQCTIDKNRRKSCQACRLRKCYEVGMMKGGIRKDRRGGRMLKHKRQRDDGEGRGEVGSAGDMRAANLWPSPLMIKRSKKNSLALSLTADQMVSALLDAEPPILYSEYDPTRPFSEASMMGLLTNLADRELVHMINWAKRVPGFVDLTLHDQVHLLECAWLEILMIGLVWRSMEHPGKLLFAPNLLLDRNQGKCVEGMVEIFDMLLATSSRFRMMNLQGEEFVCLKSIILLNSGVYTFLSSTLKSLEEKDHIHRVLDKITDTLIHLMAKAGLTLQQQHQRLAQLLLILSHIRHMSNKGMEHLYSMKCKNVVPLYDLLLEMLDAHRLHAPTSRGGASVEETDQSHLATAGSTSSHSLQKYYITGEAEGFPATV
The assay is described as follows: Binding Assay: The competition assay was performed in a 96-well plate (polystyrene*) which binds <2.0% of the total input [3H]-17beta-estradiol and each data point was gathered in triplicate. 100 uG/100 uL of the receptor preparation was aliquoted per well. A saturating dose of 2.5 nM [3H]17beta-estradiol+competitor (or buffer) in a 50 uL volume was added in the preliminary competition when 100x ….

These results are taken from ChEMBL document CHEMBL3639280, “2-Phenyl-1-[4-(2-Aminoethoxy)-Benzyl]-Indole and estrogen formulations” (2014).

Usually IC50 stands for the concentration that gives 50% inhibition. Consider `Cc1c(-c2ccc(O)cc2)n(Cc2ccc(OCCN3CC4CCC3C4)cc2)c2ccc(O)cc12` (stereo unspecified), for which the half-maximal inhibitory concentration (IC50) was 1 nM.
